Test results from ChEMBL document CHEMBL1130437, “Discovery of selective dopamine D4 receptor antagonists: 1-Aryloxy-3-(4-aryloxypiperidinyl)-2-propanols” (Bioorg Med Chem Lett, 1997).

What was measured:
Format in all cases: cell-based
D(2) dopamine receptor = D(2) dopamine receptor (Homo sapiens, UniProt P14416); test: Binding affinity against cloned human D2 receptor transfected in CHO-K1 cells using [3H]- spiperone as radioligand.
D(4) dopamine receptor = molecular target: T1, D(4) dopamine receptor (Homo sapiens, UniProt P21917); test: Binding affinity against human cloned D4 receptor transfected in CHO-K1 cells by [3H]- spiperone displacement.
T1 sequence (P21917 whole entry): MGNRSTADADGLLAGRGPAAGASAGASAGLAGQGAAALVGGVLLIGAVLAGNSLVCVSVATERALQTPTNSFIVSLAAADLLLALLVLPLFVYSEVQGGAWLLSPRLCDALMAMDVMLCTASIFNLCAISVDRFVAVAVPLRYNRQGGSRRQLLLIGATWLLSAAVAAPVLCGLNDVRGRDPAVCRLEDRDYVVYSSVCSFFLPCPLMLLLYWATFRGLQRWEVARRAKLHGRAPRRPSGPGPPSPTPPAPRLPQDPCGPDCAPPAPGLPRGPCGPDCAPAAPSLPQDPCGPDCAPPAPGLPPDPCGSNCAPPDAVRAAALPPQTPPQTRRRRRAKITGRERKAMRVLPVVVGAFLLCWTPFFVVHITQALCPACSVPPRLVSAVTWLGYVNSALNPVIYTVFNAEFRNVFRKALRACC

D(3) dopamine receptor = D(3) dopamine receptor (Homo sapiens, UniProt P35462); test: Binding affinity against cloned human D3 receptor transfected in CHO-K1 cells using [3H]- spiperone as radioligand.
Sequence of D(3) dopamine receptor (P35462 whole entry): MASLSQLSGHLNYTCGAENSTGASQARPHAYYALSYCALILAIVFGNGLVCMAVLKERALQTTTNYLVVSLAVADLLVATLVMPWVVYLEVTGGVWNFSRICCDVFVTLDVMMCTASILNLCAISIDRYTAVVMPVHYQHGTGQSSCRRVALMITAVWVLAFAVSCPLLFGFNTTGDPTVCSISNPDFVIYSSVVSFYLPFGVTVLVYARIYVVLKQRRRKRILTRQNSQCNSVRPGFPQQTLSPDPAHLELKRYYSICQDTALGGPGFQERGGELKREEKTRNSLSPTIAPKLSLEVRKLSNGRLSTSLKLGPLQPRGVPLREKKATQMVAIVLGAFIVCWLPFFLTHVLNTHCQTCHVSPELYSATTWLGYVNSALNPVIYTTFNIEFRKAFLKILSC

Sequence of D(2) dopamine receptor (P14416 whole entry): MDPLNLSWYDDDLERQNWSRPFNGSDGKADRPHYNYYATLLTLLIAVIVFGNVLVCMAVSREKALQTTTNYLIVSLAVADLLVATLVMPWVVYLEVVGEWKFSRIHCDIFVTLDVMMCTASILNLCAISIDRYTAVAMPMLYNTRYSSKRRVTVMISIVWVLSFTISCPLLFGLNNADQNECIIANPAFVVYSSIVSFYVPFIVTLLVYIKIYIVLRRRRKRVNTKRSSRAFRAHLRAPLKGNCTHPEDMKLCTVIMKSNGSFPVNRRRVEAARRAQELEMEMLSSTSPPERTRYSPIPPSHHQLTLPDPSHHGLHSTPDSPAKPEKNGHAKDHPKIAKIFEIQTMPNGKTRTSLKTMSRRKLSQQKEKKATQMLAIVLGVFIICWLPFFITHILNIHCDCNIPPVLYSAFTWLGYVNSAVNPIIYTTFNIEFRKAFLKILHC

| Ki (D(2) dopamine receptor) [µM] | Ki (D(4) dopamine receptor) [µM] | Ki (D(3) dopamine receptor) [µM] | Structure (SMILES) |
| --- | --- | --- | --- |
| 0.709 | 0.0116 | 0.457 | O[C@H](COc1ccccc1)CN1CCC(Oc2ccccc2)CC1 |
| – | 0.045 | – | COC(COc1cccc2ccccc12)CN1CCC(Cc2ccccc2)CC1 (stereo not given) |
| – | 0.052 | – | Cc1ccc(CC2CCN(CC(O)COc3cccc4ccccc34)CC2)cc1 (stereo not given) |
| – | 0.034 | – | OC(COc1ccccc1)CN1CCC(Cc2ccccc2)CC1 (stereo not given) |
| – | 0.072 | – | CC(COc1cccc2ccccc12)CN1CCC(Cc2ccccc2)CC1 (stereo not given) |
| – | 0.032 | – | OC(COc1cccc2ccccc12)CN1CCC(Cc2ccc(F)cc2)CC1 (stereo not given) |
| 2.34 | 0.018 | – | OC(COc1cccc2ccccc12)CN1CCC(Oc2ccccc2)CC1 (stereo not given) |
| – | 0.045 | – | OC(COc1cccc2ccccc12)CN1CCC(Cc2ccc(Cl)cc2)CC1 (stereo not given) |
| – | 0.032 | – | OC(COc1cccc2ccccc12)CN1CCC(Sc2ccccc2)CC1 (stereo not given) |
| – | 0.059 | – | O=[N+]([O-])c1ccc(OCC(O)CN2CCC(Cc3ccccc3)CC2)cc1 (stereo not given) |
| – | 0.123 | – | COc1ccc(OCC(O)CN2CCC(Cc3ccccc3)CC2)cc1 (stereo not given) |
| – | 0.018 | – | OC(COc1ccc(Cl)cc1)CN1CCC(Cc2ccccc2)CC1 (stereo not given) |
| – | 0.074 | – | COc1ccc(CC2CCN(CC(O)COc3cccc4ccccc34)CC2)cc1 (stereo not given) |
| 0.244 | 0.002 | 0.22 | O[C@@H](COc1ccccc1)CN1CCC(Oc2ccccc2)CC1 |
| – | 0.05 | – | c1ccc(CC2CCN(CCCOc3cccc4ccccc34)CC2)cc1 |
| 1.44 | 0.026 | – | OC(COc1cccc2ccccc12)CN1CCC(Cc2ccccc2)CC1 (stereo not given) |
| 0.911 | 0.0036 | 0.537 | OC(COc1ccccc1)CN1CCC(Oc2ccccc2)CC1 (racemic) |
